Assay results from ChEMBL document CHEMBL1158371, “Design, synthesis, and evaluation of biphenyl-4-yl-acrylohydroxamic acid derivatives as histone deacetylase (HDAC) inhibitors” (Eur J Med Chem, 2009).
Activity calls are given as the source filed them. No cut-off for these calls is given here.

Legend:
[1] = system: NB-4; experiment: Antiproliferative activity against human NB4 cells after 72 hrs; type: functional, cell-based; details: NB-4, 72 h
[2] = target: Histone deacetylase 2 (Homo sapiens, UniProt Q92769); experiment: Inhibition of HDAC2 in human HeLa cells; type: cell-based
Sequence of Histone deacetylase 2 (Q92769 whole entry): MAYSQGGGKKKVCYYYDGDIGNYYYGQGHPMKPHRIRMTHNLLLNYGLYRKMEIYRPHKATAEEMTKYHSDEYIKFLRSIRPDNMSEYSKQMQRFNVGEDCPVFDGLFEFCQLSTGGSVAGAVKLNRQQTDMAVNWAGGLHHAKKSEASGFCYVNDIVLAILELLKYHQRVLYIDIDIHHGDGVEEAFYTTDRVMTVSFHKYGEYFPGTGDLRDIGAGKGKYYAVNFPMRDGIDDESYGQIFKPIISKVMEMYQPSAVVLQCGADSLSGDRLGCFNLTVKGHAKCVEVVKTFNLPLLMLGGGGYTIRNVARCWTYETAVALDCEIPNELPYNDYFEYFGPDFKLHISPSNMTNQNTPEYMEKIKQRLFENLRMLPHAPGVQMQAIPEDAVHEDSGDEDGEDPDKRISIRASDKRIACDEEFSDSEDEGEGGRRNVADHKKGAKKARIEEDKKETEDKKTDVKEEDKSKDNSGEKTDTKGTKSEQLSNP

[3] = system: HCT-116; experiment: Antiproliferative activity against human HCT116 cells after 72 hrs; type: functional, cell-based; details: HCT-116, 72 h
[4] = system: IGROV-1; experiment: Antiproliferative activity against human IGROV1 cells after 72 hrs; type: functional, cell-based; details: IGROV-1, 72 h
[5] = system: IGROV-1; experiment: Antiproliferative activity against cisplatin-resistant human IGROV1 cells after 72 hrs; type: functional, cell-based; details: IGROV-1, 72 h
[6] = system: IGROV-1; experiment: Induction of apoptosis in human IGROV1 cells at IC80 after 72 hrs by TUNEL assay; type: functional
[7] = system: IGROV-1; experiment: Cell cycle arrest in human IGROV1 cells assessed as accumulation at sub-G1 phase at IC80 after 24 hrs using propidium-iodide staining by flow-cytometry; type: functional, cell-based
[8] = system: IGROV-1; experiment: Cell cycle arrest in cisplatin-resistant human IGROV1 cells assessed as partial accumulation at S phase at IC80 using propidium-iodide staining by flow-cytometry; type: functional, cell-based
[9] = system: IGROV-1; experiment: Cell cycle arrest in cisplatin-resistant human IGROV1 cells assessed as partial accumulation at G2/M phase at IC80 using propidium-iodide staining by flow-cytometry; type: functional, cell-based
[10] = system: IGROV-1; experiment: Antiproliferative activity against human IGROV1 cells after 72 hrs by cell counting; details: IGROV-1, 72 h
[11] = system: NCI-H460; experiment: Antiproliferative activity against human H460 cells after 72 hrs; type: functional, cell-based; details: NCI-H460, 72 h
[12] = system: IGROV-1; experiment: Antitumor activity against human IGROV1 cells athymic nude Swiss mouse assessed as tumor volume inhibition at 20 mg/kg, po QD administered 5 days a week for 4 weeks; type: functional
[13] = system: Mus musculus; experiment: Toxicity in athymic nude Swiss mouse bearing human IGROV1 cells assessed as body weight loss at 20 mg/kg, po QD administered 5 days a week for 4 weeks; type: organism-based, IGROV-1; design: dose 20 mg/kg, route oral; details: in vivo
[14] = system: NCI-H460; experiment: animal or person; type: functional, Homo sapiens; details: Mus musculus, route oral
Description: Antitumor activity against human H460 cells athymic nude Swiss mouse assessed as tumor volume inhibition at 100 mg/kg, po QD administered 5 days a week for 2 weeks

[15] = system: NCI-H460; experiment: Antitumor activity against human H460 cells athymic nude Swiss mouse assessed as tumor volume inhibition at 100 mg/kg, ip QD administered 5 days a week for 2 weeks; type: functional; details: route intraperitoneal
[16] = system: HCT-116; experiment: Antitumor activity against human HCT116 cells athymic nude Swiss mouse assessed as tumor volume inhibition at 20 mg/kg, po QD administered 5 days a week for 4 weeks; type: functional
[17] = system: HCT-116; experiment: Antitumor activity against human HCT116 cells athymic nude Swiss mouse assessed as tumor volume inhibition at 20 mg/kg, ip QD administered 5 days a week for 4 weeks; type: functional; details: HCT-116, ip, route intraperitoneal
[18] = system: Mus musculus; experiment: Toxicity in athymic nude Swiss mouse bearing human H460 cells assessed as body weight loss at 100 mg/kg, ip QD administered 5 days a week for 2 weeks; type: organism-based; design: dose 100 mg/kg, route intraperitoneal; details: in vivo
[19] = system: Mus musculus; experiment: Toxicity in athymic nude Swiss mouse bearing human HCT116 cells assessed as body weight loss at 20 mg/kg, po QD administered 5 days a week for 4 weeks; type: organism-based, HCT-116; design: dose 20 mg/kg, route oral; details: in vivo
[20] = system: Mus musculus; experiment: Toxicity in athymic nude Swiss mouse bearing human HCT116 cells assessed as body weight loss at 20 mg/kg, ip QD administered 5 days a week for 4 weeks; type: organism-based, HCT-116; design: dose 20 mg/kg, route intraperitoneal; details: in vivo
[21] = system: IGROV-1; experiment: Induction of apoptosis in human IGROV1 cells at IC90 after 72 hrs by TUNEL assay; type: functional
[22] = system: IGROV-1; experiment: Cell cycle arrest in human IGROV1 cells assessed as accumulation at sub-G1 phase at IC90 after 24 hrs using propidium-iodide staining by flow-cytometry; type: functional, cell-based
[23] = system: IGROV-1; experiment: Cell cycle arrest in cisplatin-resistant human IGROV1 cells assessed as partial accumulation at S phase at IC90 using propidium-iodide staining by flow-cytometry; type: functional, cell-based
[24] = system: IGROV-1; experiment: Cell cycle arrest in cisplatin-resistant human IGROV1 cells assessed as partial accumulation at G2/M phase at IC90 using propidium-iodide staining by flow-cytometry; type: functional, cell-based
[25] = system: Mus musculus; experiment: Toxicity in athymic nude Swiss mouse bearing human HCT116 cells assessed as body weight loss at 100 mg/kg, po QD administered 5 days a week for 4 weeks; type: organism-based, HCT-116; design: dose 100 mg/kg, route oral; details: in vivo

| SMILES | IC50 [1] | IC50 [2] | IC50 [3] | IC50 [4] | IC50 [5] | Activity [6] | Activity [7] | Activity [8] | Activity [9] | IC80 [10] | IC50 [11] | other results |
| --- | --- | --- | --- | --- | --- | --- | --- | --- | --- | --- | --- | --- |
| CN(C)c1ccc(-c2ccc(/C=C/C(=O)NO)cc2)cc1 | 860 nM | > 5000 nM | 700 nM | 1100 nM | 3500 nM | 89% | Active | Active | Active | 3000 nM |  |  |
| COc1ccc(-c2ccc(/C=C/C=C/C(=O)NO)cc2)cc1 |  | > 5000 nM |  | 570 nM | 2010 nM | 90% |  |  |  | 10000 nM | > 20000 nM |  |
| O=C(/C=C/c1ccc(-c2ccc(Cl)cc2)cc1)NO | 760 nM | 1860 nM | 510 nM | 610 nM | 1360 nM | 77% | Active | Active | Active | 2000 nM |  |  |
| O=C(/C=C/c1ccc(-c2cccs2)cc1)NO |  | 450 nM |  | 2800 nM | 3200 nM | 90% | Active | Active | Active | 7000 nM | 2800 nM |  |
| O=C(CCc1ccc(-c2ccc(O)cc2)cc1)NO | 3900 nM | 1700 nM | 260 nM | 800 nM | 950 nM | 45% | Active | Active | Active | 10000 nM | 15200 nM |  |
| O=C(/C=C/c1ccc(-c2ccc(CO)cc2)cc1)NO | 1810 nM | 220 nM | 800 nM | 8000 nM | 5500 nM | 90% | Active | Active | Active | 15000 nM | 3800 nM |  |
| O=C(/C=C/C1CCC(c2ccc(O)cc2)CC1)NO (centres undefined) | 900 nM | 310 nM | 370 nM | 2500 nM | 2600 nM |  |  |  |  |  | 2200 nM |  |
| N#Cc1ccc(-c2ccc(/C=C/C=C/C(=O)NO)cc2)cc1 |  | 1200 nM |  | 1050 nM | 3100 nM |  |  |  |  |  | 3300 nM |  |
| N#Cc1ccc(-c2ccc(/C=C/C(=O)NO)cc2)cc1 |  | 330 nM |  | 2700 nM | 3200 nM | 90% | Active | Active | Active | 10000 nM | 5700 nM | inhibition in vivo at 20 mg/kg [12]: 37%; Activity [13]: 0% |
| O=C(/C=C/c1ccc(-c2ccccc2)cc1)NO | 900 nM | 820 nM | 1580 nM | 3500 nM | 4000 nM |  |  |  |  |  | 5400 nM |  |
| O=C(/C=C/Oc1ccc(-c2ccccc2)cc1)NO |  |  | 3900 nM | 5400 nM | 5900 nM |  |  |  |  |  |  |  |
| COc1ccc(-c2ccc(/C=C/C(=O)NO)cc2)cc1 |  | 1160 nM | 220 nM | 750 nM | 2300 nM | 52% | Active | Active | Active | 3000 nM | 3700 nM | inhibition in vivo at 100 mg/kg [14]: 57%; inhibition in vivo at 100 mg/kg [15]: 39%; inhibition in vivo at 20 mg/kg [16]: 35%; inhibition in vivo at 20 mg/kg [17]: 50%; inhibition in vivo at 20 mg/kg [12]: 71%; Activity [18]: 4%; Activity [19]: 1%; Activity [20]: 2%; Activity [13]: 0% |
| O=C(CCCCCCC(=O)Nc1ccccc1)NO [VORINOSTAT] |  |  | 310 nM | 2200 nM | 2200 nM | 15% | Active | Active | Active |  |  | Activity [21]: 45%; Activity [22]: Active; Activity [23]: Active; Activity [24]: Active; Activity [25]: 4% |
| O=Cc1ccc(-c2ccc(/C=C/C(=O)NO)cc2)cc1 |  |  |  | 12100 nM | 20300 nM |  |  |  |  |  |  |  |
| O=C(/C=C/c1ccc(-c2ccc3[nH]ccc3c2)cc1)NO | 6500 nM | 1200 nM |  | 22100 nM | 29300 nM |  |  |  |  |  | 14000 nM |  |
| O=C(/C=C/C=C/c1ccc(-c2ccccc2)cc1)NO | 660 nM | > 5000 nM | 980 nM | 1400 nM | 2400 nM | 89% | Active | Active | Active | 3000 nM | 1900 nM |  |
| O=C(/C=C/c1ccc(-c2ccc(O)c(Cl)c2)cc1)NO | 580 nM | 460 nM | 1460 nM | 4100 nM | 3900 nM |  | Active | Active | Active |  | 3100 nM |  |
| O=C(CCC1CCC(c2ccc(O)cc2)CC1)NO (centres undefined) | 6900 nM |  | 4270 nM | 31900 nM | 23900 nM |  |  |  |  |  | 9500 nM |  |
| O=C(/C=C/c1cccc(-c2ccc(O)cc2)c1)NO | 2850 nM | 320 nM | 1640 nM | > 10000 nM | > 10000 nM |  |  |  |  |  | 5600 nM |  |
| O=C(CCCCc1ccc(-c2ccccc2)cc1)NO | 860 nM | 720 nM | 2700 nM | 8000 nM | 9100 nM | 65% | Active | Active | Active | 12000 nM | 4700 nM |  |
| O=C(/C=C/c1ccc(-c2ccncc2)cc1)NO | 3290 nM | > 5000 nM |  |  |  |  |  |  |  |  |  |  |
